PubChem BioAssay (NCI)
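Compound exposure: 48 hours, 5 concentrations, 96-well plates. Here, GI50 denotes the concentration required for 50% inhibition of growth. TGI is the concentration that stops growth completely.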

Assays:
Assay in all cases: growth of human tumour cells (NCI), 48 h; in the data active = GI50 below about 0.43 µM; inactive = the rest
SR leukemia = tested on: SR leukemia
RPMI-8226 leukemia = tested on: RPMI-8226 leukemia
MCF7 breast = tested on: MCF7 breast
NCI-H460 lung = tested on: NCI-H460 lung
A549 NSCLC = tested on: A549 NSCLC
EKVX NSCLC = tested on: EKVX NSCLC
HOP-92 NSCLC = tested on: HOP-92 NSCLC
SW-620 colon = tested on: SW-620 colon
PC-3 prostate = tested on: PC-3 prostate
CCRF-CEM leukemia = tested on: CCRF-CEM leukemia
MDA-MB-435 = tested on: MDA-MB-435
BT-549 breast = tested on: BT-549 breast
SN12C renal = tested on: SN12C renal
SF-539 CNS = tested on: SF-539 CNS
MALME-3M melanoma = tested on: MALME-3M melanoma
MOLT-4 leukemia = tested on: MOLT-4 leukemia
OVCAR-4 ovarian = tested on: OVCAR-4 ovarian
SK-MEL-28 melanoma = tested on: SK-MEL-28 melanoma
SK-OV-3 ovarian = tested on: SK-OV-3 ovarian
CAKI-1 renal = tested on: CAKI-1 renal
T-47D breast = tested on: T-47D breast
SNB-75 CNS = tested on: SNB-75 CNS
HS 578T breast = tested on: HS 578T breast
K-562 leukemia = tested on: K-562 leukemia
786-0 renal = tested on: 786-0 renal
SNB-19 CNS = tested on: SNB-19 CNS
ACHN renal = tested on: ACHN renal
HL-60(TB) leukemia = tested on: HL-60(TB) leukemia
IGROV1 ovarian = tested on: IGROV1 ovarian

COC(C(=O)[C@@H](O)[C@@H](C)O)[C@@H]1Cc2cc3cc(O[C@H]4C[C@@H](O[C@H]5C[C@@H](O)[C@H](O)C(C)O5)[C@H](O)C(C)O4)c(C)c(O)c3c(O)c2C(=O)[C@H]1O[C@H]1C[C@@H](O[C@H]2C[C@@H](O[C@H]3C[C@@H](O)[C@H](OC)C(C)O3)[C@@H](O)C(C)O2)[C@H](O)C(C)O1 (stereo partly specified)
101 nM: TGI (SF-539 CNS)
237 nM: TGI (T-47D breast)
258 nM: TGI (BT-549 breast)
inactive: GI50 (CAKI-1 renal) 601 nM
> 33300 nM: TGI (SR leukemia) | TGI (MCF7 breast) | TGI (NCI-H460 lung) | TGI (A549 NSCLC) | TGI (EKVX NSCLC) | TGI (SW-620 colon) | TGI (PC-3 prostate) | TGI (SN12C renal) | TGI (SK-OV-3 ovarian) | TGI (CAKI-1 renal) | TGI (HS 578T breast) | TGI (K-562 leukemia) | TGI (SNB-19 CNS) | TGI (ACHN renal) | TGI (IGROV1 ovarian)
active: GI50 (RPMI-8226 leukemia) 14.1 nM | GI50 (MCF7 breast) 7.28 nM | GI50 (NCI-H460 lung) 13.2 nM | GI50 (HOP-92 NSCLC) 12.2 nM | GI50 (SW-620 colon) 19.7 nM | GI50 (PC-3 prostate) 31.7 nM | GI50 (CCRF-CEM leukemia) 42.5 nM | GI50 (MDA-MB-435) 21.9 nM | GI50 (BT-549 breast) 21.9 nM | GI50 (SF-539 CNS) 14.2 nM | GI50 (MALME-3M melanoma) 11 nM | GI50 (MOLT-4 leukemia) 23.1 nM | GI50 (OVCAR-4 ovarian) 49 nM | GI50 (SK-MEL-28 melanoma) 9.46 nM | GI50 (T-47D breast) 13.9 nM | GI50 (HS 578T breast) 19 nM | GI50 (K-562 leukemia) 22.4 nM | GI50 (786-0 renal) 31.3 nM | GI50 (ACHN renal) 83.1 nM | GI50 (HL-60(TB) leukemia) 65.1 nM | GI50 (IGROV1 ovarian) 23.9 nM
197 nM: TGI (MDA-MB-435)
> 26500 nM: TGI (OVCAR-4 ovarian)
7130 nM: TGI (RPMI-8226 leukemia)
1270 nM: TGI (HOP-92 NSCLC)
219 nM: TGI (MOLT-4 leukemia)
230 nM: TGI (SNB-75 CNS)
64.7 nM: TGI (SK-MEL-28 melanoma)
767 nM: TGI (HL-60(TB) leukemia)
88 nM: TGI (MALME-3M melanoma)
> 13100 nM: TGI (CCRF-CEM leukemia)
> 26900 nM: TGI (786-0 renal)
